Test results published in patent US8192962B2, “Processes for detecting toxic substances” (Daikin Industries, Ltd., priority 2001, dated 2012).

Tested on: Unknown protein yeast genes
Experiment: DNA chip mRNA expression in yeast, unknown protein yeast genes (Table 1)
Assay type: cell-based, Saccharomyces cerevisiae S288C
Summary of the method: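 Values are treated/untreated fluorescence ratios from a whole-genome yeast DNA chip hybridized over 12 hours at 65° C with Cy3- or Cy5-labelled cDNA from poly(A) mRNA. Log-phase S288C yeast in YPD at 25° C had received a single toxic chemical for two hours, dosed to slow growth without killing.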

With `O=[N+]([O-])c1cc[n+]([O-])c2ccccc12` [(5), 4-nitroquinolin-N-oxide] the “The level of expressed mRNA in the presence of chemical substance/The level of expressed mRNA in the absence of chemical substance” value (yeast gene YKL071W) was 1.1, the “The level of expressed mRNA in the presence of chemical substance/The level of expressed mRNA in the absence of chemical substance” value (yeast gene YKL086W, incubated two hours with chemical substance) was 0.8 and the “The level of expressed mRNA in the presence of chemical substance/The level of expressed mRNA in the absence of chemical substance” value (yeast gene YKL151C, incubated two hours with chemical substance) was 1.0. For the same compound, the “The level of expressed mRNA in the presence of chemical substance/The level of expressed mRNA in the absence of chemical substance” value (yeast gene YKL153W, incubated two hours with chemical substance) was 1.0, the “The level of expressed mRNA in the presence of chemical substance/The level of expressed mRNA in the absence of chemical substance” value (yeast gene YKL195W, incubated two hours with chemical substance) was 1.9 and the “The level of expressed mRNA in the presence of chemical substance/The level of expressed mRNA in the absence of chemical substance” value (yeast gene YKR091W, incubated two hours with chemical substance) was 1.6. The “The level of expressed mRNA in the presence of chemical substance/The level of expressed mRNA in the absence of chemical substance” value (yeast gene YLR054C, incubated two hours with chemical substance) was 1.3, the “The level of expressed mRNA in the presence of chemical substance/The level of expressed mRNA in the absence of chemical substance” value (yeast gene YLR149C, incubated two hours with chemical substance) was 0.8 and the “The level of expressed mRNA in the presence of chemical substance/The level of expressed mRNA in the absence of chemical substance” value (yeast gene YLR152C, incubated two hours with chemical substance) was 1.1. For the same compound, the “The level of expressed mRNA in the presence of chemical substance/The level of expressed mRNA in the absence of chemical substance” value (yeast gene YLR194C, incubated two hours with chemical substance) was 1.0, the “The level of expressed mRNA in the presence of chemical substance/The level of expressed mRNA in the absence of chemical substance” value (yeast gene YLR324W, incubated two hours with chemical substance) was 1.3 and the “The level of expressed mRNA in the presence of chemical substance/The level of expressed mRNA in the absence of chemical substance” value (yeast gene YLR339C) was 1.3. The “The level of expressed mRNA in the presence of chemical substance/The level of expressed mRNA in the absence of chemical substance” value (yeast gene YLR350W, incubated two hours with chemical substance) was 0.8, the “The level of expressed mRNA in the presence of chemical substance/The level of expressed mRNA in the absence of chemical substance” value (yeast gene YLR387C, incubated two hours with chemical substance) was 1.3 and the “The level of expressed mRNA in the presence of chemical substance/The level of expressed mRNA in the absence of chemical substance” value (yeast gene YLR460C) was 1.3. The “The level of expressed mRNA in the presence of chemical substance/The level of expressed mRNA in the absence of chemical substance” value (yeast gene YML117W, incubated two hours with chemical substance) was 0.8, the “The level of expressed mRNA in the presence of chemical substance/The level of expressed mRNA in the absence of chemical substance” value (yeast gene YMR007W) was 1.3 and the “The level of expressed mRNA in the presence of chemical substance/The level of expressed mRNA in the absence of chemical substance” value (yeast gene YMR009W, incubated two hours with chemical substance) was 1.9. For the same compound, the “The level of expressed mRNA in the presence of chemical substance/The level of expressed mRNA in the absence of chemical substance” value (yeast gene YMR067C, incubated two hours with chemical substance) was 1.1, the “The level of expressed mRNA in the presence of chemical substance/The level of expressed mRNA in the absence of chemical substance” value (yeast gene YMR090W) was 0.7 and the “The level of expressed mRNA in the presence of chemical substance/The level of expressed mRNA in the absence of chemical substance” value (yeast gene YMR095C, incubated two hours with chemical substance) was 0.9. The “The level of expressed mRNA in the presence of chemical substance/The level of expressed mRNA in the absence of chemical substance” value (yeast gene YMR097C, incubated two hours with chemical substance) was 0.7, the “The level of expressed mRNA in the presence of chemical substance/The level of expressed mRNA in the absence of chemical substance” value (yeast gene YMR102C, incubated two hours with chemical substance) was 1.2 and the “The level of expressed mRNA in the presence of chemical substance/The level of expressed mRNA in the absence of chemical substance” value (yeast gene YMR107W, incubated two hours with chemical substance) was 1.1. For the same compound, the “The level of expressed mRNA in the presence of chemical substance/The level of expressed mRNA in the absence of chemical substance” value (yeast gene YMR180C, incubated two hours with chemical substance) was 1.0, the “The level of expressed mRNA in the presence of chemical substance/The level of expressed mRNA in the absence of chemical substance” value (yeast gene YMR184W, incubated two hours with chemical substance) was 0.8 and the “The level of expressed mRNA in the presence of chemical substance/The level of expressed mRNA in the absence of chemical substance” value (yeast gene YMR191W, incubated two hours with chemical substance) was 1.5. For the same compound, the “The level of expressed mRNA in the presence of chemical substance/The level of expressed mRNA in the absence of chemical substance” value (yeast gene YMR295C, incubated two hours with chemical substance) was 1.4, the “The level of expressed mRNA in the presence of chemical substance/The level of expressed mRNA in the absence of chemical substance” value (yeast gene YMR316W, incubated two hours with chemical substance) was 1.1 and the “The level of expressed mRNA in the presence of chemical substance/The level of expressed mRNA in the absence of chemical substance” value (yeast gene YNL044W, incubated two hours with chemical substance) was 1.2. The “The level of expressed mRNA in the presence of chemical substance/The level of expressed mRNA in the absence of chemical substance” value (yeast gene YNL074C, incubated two hours with chemical substance) was 1.3, the “The level of expressed mRNA in the presence of chemical substance/The level of expressed mRNA in the absence of chemical substance” value (yeast gene YNL092W, incubated two hours with chemical substance) was 0.9 and the “The level of expressed mRNA in the presence of chemical substance/The level of expressed mRNA in the absence of chemical substance” value (yeast gene YNL115C, incubated two hours with chemical substance) was 0.8. The “The level of expressed mRNA in the presence of chemical substance/The level of expressed mRNA in the absence of chemical substance” value (yeast gene YNL156C, incubated two hours with chemical substance) was 1.6, the “The level of expressed mRNA in the presence of chemical substance/The level of expressed mRNA in the absence of chemical substance” value (yeast gene YNL234W, incubated two hours with chemical substance) was 1.7 and the “The level of expressed mRNA in the presence of chemical substance/The level of expressed mRNA in the absence of chemical substance” value (yeast gene YNL281W, incubated two hours with chemical substance) was 1.7. For the same compound, the “The level of expressed mRNA in the presence of chemical substance/The level of expressed mRNA in the absence of chemical substance” value (yeast gene YNL305C, incubated two hours with chemical substance) was 1.3, the “The level of expressed mRNA in the presence of chemical substance/The level of expressed mRNA in the absence of chemical substance” value (yeast gene YNR068C, incubated two hours with chemical substance) was 1.7 and the “The level of expressed mRNA in the presence of chemical substance/The level of expressed mRNA in the absence of chemical substance” value (yeast gene YOL032W, incubated two hours with chemical substance) was 1.4. The “The level of expressed mRNA in the presence of chemical substance/The level of expressed mRNA in the absence of chemical substance” value (yeast gene YOL036W, incubated two hours with chemical substance) was 1.2, the “The level of expressed mRNA in the presence of chemical substance/The level of expressed mRNA in the absence of chemical substance” value (yeast gene YOL047C, incubated two hours with chemical substance) was 1.4 and the “The level of expressed mRNA in the presence of chemical substance/The level of expressed mRNA in the absence of chemical substance” value (yeast gene YOL071W, incubated two hours with chemical substance) was 0.9. For the same compound, the “The level of expressed mRNA in the presence of chemical substance/The level of expressed mRNA in the absence of chemical substance” value (yeast gene YOL082W, incubated two hours with chemical substance) was 1.5, the “The level of expressed mRNA in the presence of chemical substance/The level of expressed mRNA in the absence of chemical substance” value (yeast gene YOL083W, incubated two hours with chemical substance) was 1.4 and the “The level of expressed mRNA in the presence of chemical substance/The level of expressed mRNA in the absence of chemical substance” value (yeast gene YOL117W, incubated two hours with chemical substance) was 1.7. For the same compound, the “The level of expressed mRNA in the presence of chemical substance/The level of expressed mRNA in the absence of chemical substance” value (yeast gene YOL131W, incubated two hours with chemical substance) was 1.5, the “The level of expressed mRNA in the presence of chemical substance/The level of expressed mRNA in the absence of chemical substance” value (yeast gene YOL150C) was 1.0 and the “The level of expressed mRNA in the presence of chemical substance/The level of expressed mRNA in the absence of chemical substance” value (yeast gene YOL162W, incubated two hours with chemical substance) was 0.9. The “The level of expressed mRNA in the presence of chemical substance/The level of expressed mRNA in the absence of chemical substance” value (yeast gene YOR019W, incubated two hours with chemical substance) was 1.4, the “The level of expressed mRNA in the presence of chemical substance/The level of expressed mRNA in the absence of chemical substance” value (yeast gene YOR129C) was 1.3 and the “The level of expressed mRNA in the presence of chemical substance/The level of expressed mRNA in the absence of chemical substance” value (yeast gene YOR197W, incubated two hours with chemical substance) was 0.6. The “The level of expressed mRNA in the presence of chemical substance/The level of expressed mRNA in the absence of chemical substance” value (yeast gene YPL087W, incubated two hours with chemical substance) was 0.6, the “The level of expressed mRNA in the presence of chemical substance/The level of expressed mRNA in the absence of chemical substance” value (yeast gene YPL196W, incubated two hours with chemical substance) was 1.5 and the “The level of expressed mRNA in the presence of chemical substance/The level of expressed mRNA in the absence of chemical substance” value (yeast gene YPL206C, incubated two hours with chemical substance) was 0.7. For the same compound, the “The level of expressed mRNA in the presence of chemical substance/The level of expressed mRNA in the absence of chemical substance” value (yeast gene YPL222W, incubated two hours with chemical substance) was 1.2, the “The level of expressed mRNA in the presence of chemical substance/The level of expressed mRNA in the absence of chemical substance” value (yeast gene YPL272C) was 1.3 and the “The level of expressed mRNA in the presence of chemical substance/The level of expressed mRNA in the absence of chemical substance” value (yeast gene YPR023C, incubated two hours with chemical substance) was 1.1. For the same compound, the “The level of expressed mRNA in the presence of chemical substance/The level of expressed mRNA in the absence of chemical substance” value (yeast gene YPR150W) was 1.3 and the “The level of expressed mRNA in the presence of chemical substance/The level of expressed mRNA in the absence of chemical substance” value (yeast gene YPR151C, incubated two hours with chemical substance) was 1.3.
